Like-named read-outs stand apart in the source and are kept apart here.
Columns and labels:
[1] = tested on: adult mongrel dogs; experiment: Acute in vivo cardiotonic activity in anesthetized dogs; set-up: species or system dog (adult mongrel); settings: Canis lupus familiaris, 1.875 mg/kg intravenous, relative to controls
Experimental: The acute in vivo cardiotonic activity of compounds prepared according to the present invention was determined according to a modification of the procedure described by Alousi et al., Circ. Res., 45, 666 (1979).
In particular, adult mongrel dogs were anesthetized with sodium pentobarbital and were artificially respired. Arterial pressure was monitored via a femoral artery, and the pulse pressure was used to trigger a cardiotachometer for heart rate. Left ventricular pressure was determined with a Millar catheter, and dP/dt (the change in ventricular pressure with time) was derived. Cardiac output was determined by measuring ascending aortic blood flow with an electromagnetic flow probe, and myocardial contractile force was measured with a Walton Brodie strain gauge sutured to the right ventricle. Lead II EKG was also recorded.
A standard dose (10 μ/kg/min) of dopamine was administered to assess myocardial responsiveness.
Compounds of the invention were administered by intravenous infusion or bolus oral administration, and the effects on cardiovascular parameters were determined.
Dose related effects on the test compound on blood pressure (BP), heart rate (HR), maximum change in left ventricular pressure with time (dP/dt max), % change in cardiac force (CF) and the increase in mean arterial blood pressure relative to controls (MABP) were compared to pretreatment control values, expressed as a % change and rated for activity. Statistical evaluations were made using the appropriate parametric test against controls.

[2] = tested on: adult mongrel dogs; experiment: Renal vasodilating activity in anesthetized dogs; assay type: in vivo, dog (adult mongrel); settings: Canis lupus familiaris
Experimental: Goldberg et al, J. Pharmacol. Exp. Ther., 163, 188 (1968), performed an investigation of the structural requirements for dopamine-like renal vasodilation of phenethylamines and apmorphine. The following procedure is a variation of the assay described in that report.
Adult mongrel dogs were anesthetized and surgically prepared for electromagnetic measurement of renal artery blood flow. A carotid artery was cannulated for measuring arterial blood pressure, and drugs were administered intravenously or intraarterially (via the renal artery). Heart rate was monitored with a cardiotachometer. Renal vascular resistance was calculated as the ratio of mean arterial blood pressure/renal artery blood flow. Dopamine was infused intravenously at […] for ten minutes (at an infusion rate of about 1 ml/min) to determine responsiveness of each dog to renal dopamine receptor stimulation. Cumulative dose-response data were obtained by infusing a compound of this invention at progressively increasing (usually three-fold) infusion rates, esch dose being infused for five minutes. The maximum percent increase from pre-drug control in renal artery blood flow (or a decrease in renal vascular resistance) was determined for each infusion dose.
RBF values are percent increase in renal blood flow. RVR values are percent increase in renal vascular resistance. MABP and HR are increases in mean arterial blood pressure and heart rate, respectively, relative to controls.

**Q.** What does the source list for CCOc1cc2c(C)nc(O)c(NC(C)=O)c2cc1OC [BJ]?
**A.** change in vivo at 1.875 mg/kg ([1]; read-out: CF, percent change in cardiac force): 21%; change in vivo at 1.875 mg/kg ([1]; read-out: HR, percent change in heart rate): -3%; change in vivo at 1.875 mg/kg ([1]; read-out: MABP, mean arterial blood pressure): 1%; change in vivo at 1.875 mg/kg ([1]; read-out: dP/dt, maximum change left ventricular pressure with time): 8%; change in vivo at 6.34 mg/kg ([2]; iv, read-out: HR, percent change in heart rate): -16%; change in vivo at 6.34 mg/kg ([2]; 6.34 mg/kg intravenous, relative to controls, read-out: MABP, mean arterial blood pressure): -4%; change in vivo at 6.34 mg/kg ([2]; 6.34 mg/kg intravenous, relative to controls, read-out: RBF, renal blood flow): 18%; change in vivo at 6.34 mg/kg ([2]; 6.34 mg/kg intravenous, relative to controls, read-out: RVR, renal vascular resistance): -19%

— patent US4714705A, “4-nitrogen substituted isoquinolinol compounds having cardiotonic, phosphodiesterase fraction III inhibiting properties and/or renal vasodilating properties” (Ortho Pharmaceutical Corporation, priority 1986, dated 1987)
